Source: PubChem BioAssay AID1259407 (Chemical Carcinogenesis Research Information System (CCRIS), 2018)
Activity calls are given as the source filed them. No rule for the calls is given here.

Test system: CCRIS mutagenicity, Ames/micronucleus/aberration tests
Assay: CCRIS mutagenicity studies
[1] = Test System: AMES SALMONELLA TYPHIMURIUM, Strain/Indicator: TA97, Metabolic Activation: HAMSTER, LIVER, S-9, AROCLOR 1254 (10%), Method: PREINCUBATION
[2] = Test System: AMES SALMONELLA TYPHIMURIUM, Strain/Indicator: TA97, Metabolic Activation: NONE, Method: PREINCUBATION
[3] = Test System: AMES SALMONELLA TYPHIMURIUM, Strain/Indicator: TA97, Metabolic Activation: RAT, LIVER, S-9, AROCLOR 1254 (10%), Method: PREINCUBATION
[4] = Test System: AMES SALMONELLA TYPHIMURIUM, Strain/Indicator: TA98, Metabolic Activation: HAMSTER, LIVER, S-9, AROCLOR 1254 (10%), Method: PREINCUBATION
[5] = Test System: AMES SALMONELLA TYPHIMURIUM, Strain/Indicator: TA98, Metabolic Activation: NONE, Method: PREINCUBATION
[6] = Test System: AMES SALMONELLA TYPHIMURIUM, Strain/Indicator: TA98, Metabolic Activation: RAT, LIVER, S-9, AROCLOR 1254 (10%), Method: PREINCUBATION
[7] = Test System: AMES SALMONELLA TYPHIMURIUM, Strain/Indicator: TA100, Metabolic Activation: HAMSTER, LIVER, S-9, AROCLOR 1254 (10%), Method: PREINCUBATION
[8] = Test System: AMES SALMONELLA TYPHIMURIUM, Strain/Indicator: TA100, Metabolic Activation: NONE, Method: PREINCUBATION
[9] = Test System: AMES SALMONELLA TYPHIMURIUM, Strain/Indicator: TA100, Metabolic Activation: RAT, LIVER, S-9, AROCLOR 1254 (10%), Method: PREINCUBATION
[10] = Test System: AMES SALMONELLA TYPHIMURIUM, Strain/Indicator: TA1535, Metabolic Activation: HAMSTER, LIVER, S-9, AROCLOR 1254 (10%), Method: PREINCUBATION
[11] = Test System: AMES SALMONELLA TYPHIMURIUM, Strain/Indicator: TA1535, Metabolic Activation: NONE, Method: PREINCUBATION
[12] = Test System: AMES SALMONELLA TYPHIMURIUM, Strain/Indicator: TA1535, Metabolic Activation: RAT, LIVER, S-9, AROCLOR 1254 (10%), Method: PREINCUBATION
[13] = Test System: AMES SALMONELLA TYPHIMURIUM, Strain/Indicator: TA98, Metabolic Activation: NONE, Method: STANDARD PLATE
[14] = Test System: AMES SALMONELLA TYPHIMURIUM, Strain/Indicator: TA97, Metabolic Activation: NONE, Method: STANDARD PLATE
[15] = Test System: AMES SALMONELLA TYPHIMURIUM, Strain/Indicator: TA100, Metabolic Activation: NONE, Method: STANDARD PLATE
[16] = Test System: AMES SALMONELLA TYPHIMURIUM, Strain/Indicator: TA102, Metabolic Activation: NONE, Method: STANDARD PLATE

`O=C1OC(=O)c2cc([N+](=O)[O-])ccc21` was tested, and the mutagenic call [1] was “inactive; negative”, the mutagenic call [2] was “active; positive” and the mutagenic call [3] was “active; positive”. For the same compound, the mutagenic call [4] was “active; positive”, the mutagenic call [5] was “active; positive” and the mutagenic call [6] was “active; positive”. For the same compound, the mutagenic call [7] was “inactive; negative”, the mutagenic call [8] was “inactive; negative” and the mutagenic call [9] was “inactive; negative”. For the same compound, the mutagenic call [10] was “active; positive”, the mutagenic call [11] was “inactive; negative” and the mutagenic call [12] was “inactive; negative”. The mutagenic call (Test System: AMES SALMONELLA TYPHIMURIUM, Strain/Indicator: TA1537, Metabolic Activation: HAMSTER, LIVER, S-9, AROCLOR 1254 (10%), Method: PREINCUBATION) was “inactive; negative”, the mutagenic call (Test System: AMES SALMONELLA TYPHIMURIUM, Strain/Indicator: TA1537, Metabolic Activation: NONE, Method: PREINCUBATION) was “active; positive” and the mutagenic call (Test System: AMES SALMONELLA TYPHIMURIUM, Strain/Indicator: TA1537, Metabolic Activation: RAT, LIVER, S-9, AROCLOR 1254 (10%), Method: PREINCUBATION) was “active; positive”.
`CN(C)c1ccc(N=NS(=O)(=O)O)cc1` was tested, and the mutagenic call [1] was “active; positive”, the mutagenic call [2] was “active; positive” and the mutagenic call [3] was “active; positive”. The mutagenic call [4] was “active; positive”, the mutagenic call [5] was “active; positive” and the mutagenic call [13] was “active; positive”. For the same compound, the mutagenic call [6] was “active; positive”, the mutagenic call (Test System: AMES SALMONELLA TYPHIMURIUM, Strain/Indicator: TA98, Metabolic Activation: S-9 MIX, Method: STANDARD PLATE) was “active; positive” and the mutagenic call [7] was “active; positive”. The mutagenic call [8] was “active; positive”, the mutagenic call [9] was “active; positive” and the mutagenic call [10] was “active; positive”. For the same compound, the mutagenic call [11] was “inactive; negative”, the mutagenic call [12] was “inactive; negative” and the mutagenic call (Test System: E. COLI, Strain/Indicator: WP2, Metabolic Activation: NONE, Method: STANDARD PLATE) was “active; positive”. For the same compound, the mutagenic call (Test System: E. COLI, Strain/Indicator: WP2 UVRA, Metabolic Activation: NONE, Method: STANDARD PLATE) was “active; positive”.
In the case of `CC(C)CCC[C@@H](C)[C@H]1CC[C@H]2[C@@H]3C[C@@H]4O[C@@]45C[C@@H](O)CC[C@]5(C)[C@H]3CC[C@]12C`, the mutagenic call [14] is reported as “inactive; negative”, the mutagenic call [13] is reported as “inactive; negative” and the mutagenic call [15] is reported as “inactive; negative”. For the same compound, the mutagenic call [16] was “inactive; negative”, the mutagenic call (Test System: AMES SALMONELLA TYPHIMURIUM, Strain/Indicator: TA1535, Metabolic Activation: NONE, Method: STANDARD PLATE) was “inactive; negative” and the mutagenic call (Test System: AMES SALMONELLA TYPHIMURIUM, Strain/Indicator: TA1538, Metabolic Activation: RAT, LIVER, S-9, AROCLOR 1254 (10%), Method: STANDARD PLATE) was “active; positive”. The mutagenic call (Test System: CHINESE HAMSTER V-79, Strain/Indicator: V-79/6-THIOGUANINE, Metabolic Activation: NONE) was “active; positive”, the mutagenic call (Test System: CHINESE HAMSTER V-79, Strain/Indicator: V-79/8-AZAGUANINE, Metabolic Activation: NONE) was “active; positive” and the mutagenic call (Test System: CHINESE HAMSTER V-79, Strain/Indicator: V-79/OUABAIN, Metabolic Activation: NONE) was “inactive; negative”. The mutagenic call (Test System: MOUSE LYMPHOMA, Strain/Indicator: L5178Y (TK+/TK-), Metabolic Activation: NONE, Method: SUSPENSION/PLATE) was “active; positive. reevaluation of results: equivocal” and the mutagenic call (Test System: Mouse lymphoma, Strain/Indicator: L5178Y (tk+/tk-), Metabolic Activation: Rat, Liver, S-9, Aroclor 1254, Method: Suspension/plate) was “inactive; inconclusive (previous evaluation negative)”.
For `CO[C@H](C)[C@](O)(C(=O)OCC1=CCN2CC[C@H](O)[C@@H]12)C(C)C`, the mutagenic call (Test System: AMES SALMONELLA TYPHIMURIUM, Strain/Indicator: TA100, Metabolic Activation: HAMSTER, LIVER, S-9, PCB, Method: PREINCUBATION) was “inactive; negative; dose related trend; by authors criteria results are positive” and the mutagenic call (Test System: AMES SALMONELLA TYPHIMURIUM, Strain/Indicator: TA100, Metabolic Activation: RAT, LIVER, S-9, PCB, Method: PREINCUBATION) was “inactive; negative; dose related trend; by authors criteria results are positive”.
For `N#Cc1c(Cl)cccc1Cl`, the mutagenic call [14] was “inactive; negative”, the mutagenic call (Test System: AMES SALMONELLA TYPHIMURIUM, Strain/Indicator: TA97, Metabolic Activation: RAT, LIVER, S-9, AROCLOR 1254, Method: STANDARD PLATE) was “inactive; negative” and the mutagenic call [13] was “inactive; negative”. For the same compound, the mutagenic call (Test System: AMES SALMONELLA TYPHIMURIUM, Strain/Indicator: TA98, Metabolic Activation: RAT, LIVER, S-9, AROCLOR 1254, Method: STANDARD PLATE) was “inactive; negative”, the mutagenic call [15] was “inactive; negative” and the mutagenic call (Test System: AMES SALMONELLA TYPHIMURIUM, Strain/Indicator: TA100, Metabolic Activation: RAT, LIVER, S-9, AROCLOR 1254, Method: STANDARD PLATE) was “inactive; negative”. The mutagenic call [16] was “inactive; negative” and the mutagenic call (Test System: AMES SALMONELLA TYPHIMURIUM, Strain/Indicator: TA102, Metabolic Activation: RAT, LIVER, S-9, AROCLOR 1254, Method: STANDARD PLATE) was “inactive; negative”.
`O=c1ccc2cc(O[C@@H]3O[C@H](CO)[C@@H](O)[C@H](O)[C@H]3O)c(O)cc2o1` was tested, and the mutagenic call (Test System: AMES SALMONELLA TYPHIMURIUM, Strain/Indicator: TA92, Metabolic Activation: NONE, Method: SPOT TEST) was “inactive; negative”, the mutagenic call (Test System: AMES SALMONELLA TYPHIMURIUM, Strain/Indicator: TA92, Metabolic Activation: RAT, LIVER, S-9, AROCLOR 1254, Method: SPOT TEST) was “inactive; negative” and the mutagenic call (Test System: AMES SALMONELLA TYPHIMURIUM, Strain/Indicator: TA94, Metabolic Activation: NONE, Method: SPOT TEST) was “inactive; negative”. For the same compound, the mutagenic call (Test System: AMES SALMONELLA TYPHIMURIUM, Strain/Indicator: TA94, Metabolic Activation: RAT, LIVER, S-9, AROCLOR 1254, Method: SPOT TEST) was “inactive; negative”, the mutagenic call (Test System: AMES SALMONELLA TYPHIMURIUM, Strain/Indicator: TA97, Metabolic Activation: NONE, Method: SPOT TEST) was “inactive; negative” and the mutagenic call (Test System: AMES SALMONELLA TYPHIMURIUM, Strain/Indicator: TA97, Metabolic Activation: RAT, LIVER, S-9, AROCLOR 1254, Method: SPOT TEST) was “inactive; negative”. The mutagenic call (Test System: AMES SALMONELLA TYPHIMURIUM, Strain/Indicator: TA98, Metabolic Activation: NONE, Method: SPOT TEST) was “inactive; negative”, the mutagenic call (Test System: AMES SALMONELLA TYPHIMURIUM, Strain/Indicator: TA98, Metabolic Activation: RAT, LIVER, S-9, AROCLOR 1254, Method: SPOT TEST) was “inactive; negative” and the mutagenic call (Test System: AMES SALMONELLA TYPHIMURIUM, Strain/Indicator: TA100, Metabolic Activation: NONE, Method: SPOT TEST) was “inactive; negative”. The mutagenic call (Test System: AMES SALMONELLA TYPHIMURIUM, Strain/Indicator: TA100, Metabolic Activation: RAT, LIVER, S-9, AROCLOR 1254, Method: SPOT TEST) was “inactive; negative”, the mutagenic call (Test System: AMES SALMONELLA TYPHIMURIUM, Strain/Indicator: TA102, Metabolic Activation: NONE, Method: SPOT TEST) was “inactive; negative” and the mutagenic call (Test System: AMES SALMONELLA TYPHIMURIUM, Strain/Indicator: TA102, Metabolic Activation: RAT, LIVER, S-9, AROCLOR 1254, Method: SPOT TEST) was “inactive; negative”.
